Tested on: 598228-144-R-J1-PDC complex spheroid viability
Assay: Anticancer human tumor 598228-144-R-J1-PDC patient-derived serous endometrial adenocarcinoma cell line growth inhibition [GQUAD]
Conditions: for IC50: curve of first compound; for viability, T/C: stronger effect = lower value; active = viability on the fitted dose curve at most 10% of control; inactive = the rest
Source text: DNA G-quadruplex Stabilizer Agents in Combinations in Complex Spheroids
A high-throughput screen of multi-cell type tumor spheroids was designed to identify active combinations of DNA G-quadruplex stabilizer agents and targeted small molecules. Complex spheroids include a stromal component modeled by human endothelial cells (HUVEC) and fibroblasts modeled by human mesenchymal stem cells (MSCs). The concentration ranges selected for each drug and investigational agent were based upon clinically achievable concentrations if the clinical Cmax of the agent was known.
Compounds. The drugs and investigational agents: pidnarulex (CX-5461; NSC782164), APTO-253 (NSC789042), BRACO-19 (NSC847499), peposertib (NSC802822), ceralasertib (NSC780249), elimusertib (NSC800525), camonsertib (NSC841442), AZD-1390 (NSC803789), olaparib (NSC753686), talazoparib (NSC767125), ART-558 (NSC835418), sotorasib (NSC818433), MRTX-1133 (NSC836407), SN-38 (NSC673596), topotecan (NSC609699), etoposide (NSC141540), doxorubicin (NSC123127), gemcitabine (NSC613327), 5-fluorouracil (NSC19893), paclitaxel (NSC125973), vemurafenib (NSC761431), panobinostat (NSC761190), R-306465 (JNJ-16241199; NSC773264), adavosertib (NSC754352), TP-3654 (NSC805149), carboplatin (NSC241240), KSQ-4279 (NSC840948), and staurosporine (NSC755774) were obtained from the National Cancer Institute (NCI) Developmental Therapeutics Program Chemical Repository (34). The FDA-approved anticancer drug set is available from the NCI Developmental Therapeutics Program. […] The stock solutions were prepared in dimethyl sulfoxide (DMSO, Sigma-Aldrich, St. Louis, MO, cat. D2650) at 800-fold the tested concentration and stored at -70 degrees C prior to their use. All drugs and investigational agents were tested over a range starting from a high concentration at or near the clinical Cmax and decreasing in half-log increments. If the clinical Cmax for an agent had not been determined, the highest concentration tested was 10 microM.
2.3 Cell Culture. All cells were maintained in an incubator at 37 degrees C and 5% CO2 with 95% humidity. The PDC lines were cultured according to standard operating procedures established by the NCI PDMR. All PDCs were thawed and cultured in Matrigel-coated flasks prepared with a working solution of 1X Ham's F-12 nutrient mix, without supplementation (Invitrogen, cat. 11765054), 100 U/mL penicillin-streptomycin (Invitrogen, cat. 15140122), and 2.5% Matrigel (Corning Inc., cat. 354248) for the first three passages. The 857933-349-R-J2-PDC line was cultured in 6C/Colon 1B media, which includes advanced DMEM/F-12 (Thermo Fisher Scientific, cat. 12634028), 10 mM HEPES (Thermo Fisher Scientific, cat. 15630080), 1X GlutaMAX supplement (Thermo Fisher Scientific, cat. 35050061), 0.1 mg/mL primocin (InvivoGen, cat. ant-pm-2), 10% defined fetal bovine serum, heat inactivated (HyClone Laboratories Inc., cat. SH30070.03HI), 50% L-WRN conditioned media (ATCC, cat. CRL-3276), 1.25 mM N-Acetyl-L-cysteine (Sigma-Aldrich, cat. A9165), 10 mM nicotinamide (Sigma-Aldrich, cat. N0636), 1X B-27 supplement (Thermo Fisher Scientific, cat. 17504044), 1X N-2 supplement (Thermo Fisher Scientific, cat. 17502048), 10 microM Y-27632 dihydrochloride (Tocris Bioscience, cat. 1254), and 50 ng/mL human EGF recombinant protein (Thermo Fisher Scientific, cat. PHG0311). The 485176-168-R4-J1-PDC line was cultured in Panc media, which includes all 6C/Colon 1B media components plus 100 ng/mL human FGF-10 (Thermo Fisher Scientific, cat. 100-26), 500 nM SB-431542 (Selleckchem, cat. S1067), and gastrin (Tocris, cat. 3006).
[…]

[1] = second compound 0.0316 µM, first compound 0.000999 µM
[2] = second compound 0.0316 µM, first compound 0.00316 µM
[3] = second compound 0.0316 µM, first compound 0.00999 µM
[4] = second compound 0.0316 µM, first compound 0.0316 µM
[5] = second compound 0.0316 µM, first compound 0.0999 µM
[6] = second compound 0.0316 µM, first compound 0.316 µM
[7] = second compound 0.1 µM, first compound 0.000999 µM
[8] = second compound 0.1 µM, first compound 0.00316 µM
[9] = second compound 0.1 µM, first compound 0.00999 µM
[10] = second compound 0.1 µM, first compound 0.0316 µM
[11] = second compound 0.1 µM, first compound 0.0999 µM
[12] = second compound 0.1 µM, first compound 0.316 µM
[13] = second compound 0.316 µM, first compound 0.000999 µM
[14] = second compound 0.316 µM, first compound 0.00316 µM
[15] = second compound 0.316 µM, first compound 0.00999 µM
[16] = second compound 0.316 µM, first compound 0.0316 µM
[17] = second compound 0.316 µM, first compound 0.0999 µM
[18] = second compound 0.316 µM, first compound 0.316 µM
[19] = second compound 1 µM, first compound 0.000999 µM
[20] = second compound 1 µM, first compound 0.00316 µM
[21] = second compound 1 µM, first compound 0.00999 µM
[22] = second compound 1 µM, first compound 0.0316 µM
[23] = second compound 1 µM, first compound 0.0999 µM
[24] = second compound 1 µM, first compound 0.316 µM
[25] = second compound 3.16 µM, first compound 0.000999 µM
[26] = second compound 3.16 µM, first compound 0.00316 µM
[27] = second compound 3.16 µM, first compound 0.00999 µM
[28] = second compound 3.16 µM, first compound 0.0316 µM
[29] = second compound 3.16 µM, first compound 0.0999 µM
[30] = second compound 3.16 µM, first compound 0.316 µM
[31] = second compound 10 µM, first compound 0.000999 µM
[32] = second compound 10 µM, first compound 0.00316 µM
[33] = second compound 10 µM, first compound 0.00999 µM
[34] = second compound 10 µM, first compound 0.0316 µM
[35] = second compound 10 µM, first compound 0.0999 µM
[36] = second compound 10 µM, first compound 0.316 µM
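Also: spheroids exposed to the agents for one week before reading.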
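For viability, T/C in this document: percent of vehicle DMSO control viability so 100% = untreated growth.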

CCc1c2c(nc3ccc(O)cc13)-c1cc3c(c(=O)n1C2)COC(=O)[C@]3(O)CC + CN(C)c1ccc(Nc2c3ccc(NC(=O)CCN4CCCC4)cc3nc3cc(NC(=O)CCN4CCCC4)ccc23)cc1
15 nM: IC50 (second compound 3.16 µM)
7.57 nM: IC50 (second compound 0.0316 µM)
13.5 nM: IC50 (second compound 0.1 µM)
< 0.999 nM: IC50 (second compound 1 µM) | IC50 (second compound 10 µM)
inactive: viability, T/C [1] 68.8% | viability, T/C [2] 56.2% | viability, T/C [3] 45.6% | viability, T/C [4] 39.7% | viability, T/C [5] 30.5% | viability, T/C [6] 18.8% | viability, T/C [7] 65.3% | viability, T/C [8] 53.1% | viability, T/C [9] 56.1% | viability, T/C [10] 41.2% | viability, T/C [11] 25.3% | viability, T/C [12] 15.5% | viability, T/C [13] 70.2% | viability, T/C [14] 50.4% | viability, T/C [15] 45.7% | viability, T/C [16] 55.3% | viability, T/C [17] 27.7% | viability, T/C [18] 16.9% | viability, T/C [19] 50.5% | viability, T/C [20] 42% | viability, T/C [21] 49.9% | viability, T/C [22] 49% | viability, T/C [23] 27.7% | viability, T/C [24] 15.9% | viability, T/C [25] 58.6% | viability, T/C [26] 57.2% | viability, T/C [27] 59.1% | viability, T/C [28] 37.4% | viability, T/C [29] 26% | viability, T/C [30] 16.8% | viability, T/C [31] 60.6% | viability, T/C [32] 33.6% | viability, T/C [33] 37.7% | viability, T/C [34] 45.6% | viability, T/C [35] 23.5% | viability, T/C [36] 10.5%
12.1 nM: IC50 (second compound 0.316 µM)

Cc1[nH]c2ccccc2c1CCNCc1ccc(/C=C/C(=O)NO)cc1 + CN(C)c1ccc(Nc2c3ccc(NC(=O)CCN4CCCC4)cc3nc3cc(NC(=O)CCN4CCCC4)ccc23)cc1
43 nM: IC50 (second compound 1 µM)
48.5 nM: IC50 (second compound 0.1 µM)
inactive: viability, T/C [1] 113% | viability, T/C [2] 94.7% | viability, T/C [3] 103% | viability, T/C [4] 46.6% | viability, T/C [5] 29.1% | viability, T/C [7] 91.7% | viability, T/C [8] 107% | viability, T/C [9] 86% | viability, T/C [10] 64.7% | viability, T/C [11] 25.8% | viability, T/C [13] 114% | viability, T/C [14] 96.8% | viability, T/C [15] 95.7% | viability, T/C [16] 70.7% | viability, T/C [17] 26.9% | viability, T/C [19] 96.9% | viability, T/C [20] 120% | viability, T/C [21] 91.2% | viability, T/C [22] 59.1% | viability, T/C [23] 23.5% | viability, T/C [25] 99.9% | viability, T/C [26] 103% | viability, T/C [27] 87.9% | viability, T/C [28] 66.7% | viability, T/C [29] 13.9% | viability, T/C [31] 82.3% | viability, T/C [32] 102% | viability, T/C [33] 70.5% | viability, T/C [34] 33.6%
active: viability, T/C [6] 1.08% | viability, T/C [12] 0.89% | viability, T/C [18] 0.69% | viability, T/C [24] 2.25% | viability, T/C [30] 0.99% | viability, T/C [35] 8.01% | viability, T/C [36] 0.44%
38.7 nM: IC50 (second compound 0.0316 µM)
19.6 nM: IC50 (second compound 10 µM)
44.3 nM: IC50 (second compound 3.16 µM)
54.1 nM: IC50 (second compound 0.316 µM)
